Laboratory results: patent publication US20170210741A1, “Benzimidazole Compounds, Use As Inhibitors of WNT Signaling Pathway in Cancers, and Methods for Preparation Thereof” (Southern Research Institute, priority 2016, published 2017)
Where two headings read alike, the source gives them in different places.

Tests used:
Format in all cases: cell-based
Wnt signaling = Wnt signaling reporter assay (Super8XTOPFlash luciferase) in LRP6-expressing HEK293 cells; conditions: 24 h treatment, luciferase normalized to β-galactosidase; for IC50: Homo sapiens, read-out: IC50 (effects on Wnt signaling)
Description: HEK293 cells were plated into 24-well plates. After overnight culture, the cells were transiently transfected with 0.06 μg of the Super8XTOPFlash luciferase construct, 0.06 μg of β-galactosidase-expressing vector, and 0.06 μg of pCS-Myc-hLRP6 or control vector. After 24 h incubation, cells were treated with each individual compound in triplicate for 24 h. Cells were then lysed, and the luciferase and β-galactosidase activities were determined by the luciferase assay system (Promega) and β-galactosidase assay system (Promega), respectively. The luciferase activity was normalized to the β-galactosidase activity.
Table 2 below illustrates the effects of the disclosed compounds on Wnt signaling in LRP6-expressing HEK293 cells.

Suit-2 = assay: In vitro cell viability assay (Cell Titer Glo), pancreatic cancer Suit-2; conditions: 72 h
Description: (§1) Breast cancer SUM159 was obtained from Asterand and grown according to supplier's recommendation. All other cell lines were obtained from ATCC and cultured in standard cell culture conditions with complete cell culture medium containing 10% FBS.
(§2) Cancer cells were seeded into optically clear tissue culture-treated black 96-well plates (for adherent cells) or low-attachment 96-well plates (for cancer stem cells) at 2,000-5000 cells/50 μL of media per well. The cells were treated with Wnt inhibitors at 0.1 to 10 μM for 72 h. Cell viability was measured by the Cell Titer Glo Assay from Promega.

S2VP10 = assay: In vitro cell viability assay (Cell Titer Glo), pancreatic cancer S2VP10; conditions: 72 h
Description: as §1, §2

HT-29 = assay: In vitro cell viability assay (Cell Titer Glo), colorectal cancer HT-29; conditions: Homo sapiens, 72 h
Description: as §1, §2
(§3) Table 4 below illustrates the effects of the disclosed compounds on cell viability of colorectal cancer cell lines.

HCT116 = assay: In vitro cell viability assay (Cell Titer Glo), colorectal cancer HCT116; conditions: Homo sapiens, HCT-116, 72 h
Description: as §1, §2, §3

[1] = Suit-2, CSC enriching serum free medium, non-adherent plates, read-out: Cell viability (IC50) Suit-2 CSC
[2] = Suit-2, adherent, complete medium 10% FBS, read-out: Cell viability (IC50) Suit-2 Adherent
[3] = S2VP10, CSC enriching serum free medium, non-adherent plates, read-out: Cell viability (IC50) S2VP10 CSC
[4] = S2VP10, adherent, complete medium 10% FBS, read-out: Cell viability (IC50) S2VP10 Adherent
[5] = HT-29, CSC conditions, read-out: Cell viability (IC50) HT-29 CSC
[6] = HT-29, adherent, read-out: Cell viability (IC50) HT-29 Adherent
[7] = HCT116, CSC conditions, read-out: Cell viability (IC50) HCT116 CSC
[8] = HCT116, adherent, read-out: Cell viability (IC50) HCT116 Adherent

Row | Compound | IC50 (effects on Wnt signaling) (Wnt signaling) | IC50 (Suit-2; [1]) [nM] | IC50 (Suit-2; [2]) [nM] | IC50 (S2VP10; [3]) [nM] | IC50 (S2VP10; [4]) [nM] | IC50 (HT-29; [5]) [nM] | IC50 (HT-29; [6]) [nM] | IC50 (HCT116; [7]) [nM] | IC50 (HCT116; [8]) [nM] | IC50 (Wnt signaling) [nM]
1 | CN1CCN(c2ccc(-c3nc4ccncc4[nH]3)cc2)CC1 [Compound 20, 2-(4-(4-methylpiperazin-1-yl)phenyl)-3H-imidazo[4,5-c]pyridine] | Inactive | 210 | 290 | 180 | 140 |  |  |  |  | 
2 | CN1CCN(c2ccc(-c3nc4ccc(F)cc4[nH]3)cc2)CC1 [Compound 19, 6-fluoro-2-(4-(4-methylpiperazin-1-yl)phenyl)-1H-benzo[d]imidazole] | Inactive | 330 | 1340 | 350 | 790 |  |  |  |  | 
3 | Clc1cc2nc(-c3ccc(N4CCCC4)cc3)[nH]c2nc1Cl [Compound 34, 5,6-dichloro-2-(4-(pyrrolidin-1-yl)phenyl)-3H-imidazo[4,5-b]pyridine] | Inactive | > 10000 | > 10000 | > 10000 | > 10000 |  |  |  |  | 
4 | Cn1c(-c2ccc(OC(F)(F)F)cc2)nc2cc(Cl)c(Cl)cc21 [Compound 23, 5,6-dichloro-1-methyl-2-(4-(trifluoromethoxy)phenyl)-1H-benzo[d]imidazole] | Inactive |  |  |  |  |  |  |  |  | 
5 | Clc1cc2nc(-c3ccc(N4CCCC4)cc3)[nH]c2cc1Cl [Compound 12, 5,6-dichloro-2-(4-(pyrrolidin-1-yl)phenyl)-1H-benzo[d]imidazole] |  | > 10000 | 2100 | > 10000 | 2580 | 510 | 840 | 2680 | 1180 | 0.93
6 | Clc1cc2nc(-c3ccc(N4CCCCC4)cc3)[nH]c2nc1Cl [Compound 33, 5,6-dichloro-2-(4-(piperidin-1-yl)phenyl)-3H-imidazo[4,5-b]pyridine] | Inactive | > 10000 | > 10000 | > 10000 | > 10000 |  |  |  |  | 
7 | Fc1cc2[nH]c(-c3ccc(OC(F)(F)F)cc3)nc2cc1C(F)(F)F [Compound 25, 6-fluoro-2-(4-(trifluoromethoxy)phenyl)-5-(trifluoromethyl)-1H-benzo[d]imidazole] | Inactive | 2050 | 5630 | 2770 | 7200 |  |  |  |  | 
8 | CN1CCN(c2ccc(-c3nc4ccc(C(F)(F)F)cc4[nH]3)cc2)CC1 [Compound 18, 2-(4-(4-methylpiperazin-1-yl)phenyl)-6-(trifluoromethyl)-1H-benzo[d]imidazole] | Inactive | 760 | > 10000 | 1520 | 7160 |  |  |  |  | 
9 | Clc1cc2nc(-c3ccc(-n4ccnc4)cc3)[nH]c2cc1Cl [Compound 15, 2-(4-(1H-imidazol-1-yl)phenyl)-5,6-dichloro-1H-benzo[d]imidazole] |  | 1810 | > 10000 | 1340 | > 10000 |  |  |  |  | 
10 | Fc1cc2nc(-c3ccc(OC(F)(F)F)cc3)[nH]c2cc1Cl [Compound 24, 6-chloro-5-fluoro-2-(4-(trifluoromethoxy)phenyl)-1H-benzo[d]imidazole] | Inactive |  |  |  |  |  |  |  |  | 
11 | CCN1CCN(c2ccc(-c3nc4cc(Cl)c(Cl)cc4[nH]3)cc2)CC1 [Compound 14, 5,6-dichloro-2-(4-(4-ethylpiperazin-1-yl)phenyl)-1H-benzo[d]imidazole] |  | 1230 | > 10000 | 1330 | > 10000 |  |  |  |  | 
12 | Fc1cc2[nH]c(-c3ccc(N4CCCC4)cc3)nc2cc1Cl [Compound 31, 5-chloro-6-fluoro-2-(4-(pyrrolidin-1-yl)phenyl)-1H-benzo[d]imidazole] |  | 940 | 950 | 750 | 510 | 40 | 590 | 160 | 580 | 330
13 | Clc1cc2nc(-c3ccc(N4CCCCC4)cc3)[nH]c2cc1Cl [Compound 11, 5,6-dichloro-2-(4-(piperidin-1-yl)phenyl)-1H-benzo[d]imidazole] |  | > 10000 | 970 | > 10000 | 1680 | 40 | 670 | 570 | 1010 | 0.95
14 | c1cc2[nH]c(-c3ccc(N4CCCC4)cc3)nc2cn1 [Compound 28, 2-(4-(pyrrolidin-1-yl)phenyl)-1H-imidazo[4,5-c]pyridine] |  | 150 | 160 | 80 | 110 | 50 | 60 | 80 | 110 | 10400
15 | FC(F)(F)c1cc(Cl)c2[nH]c(-c3ccc(N4CCCCC4)cc3)nc2c1 [Compound 36, 7-chloro-2-(4-(piperidin-1-yl)phenyl)-5-(trifluoromethyl)-1H-benzo[d]imidazole] | Inactive | 2530 | 8660 | 2950 | > 10000 |  |  |  |  | 
16 | Clc1cc2nc(-c3ccc(N4CCNCC4)cc3)[nH]c2cc1Cl [Compound 13, 5,6-dichloro-2-(4-(piperazin-1-yl)phenyl)-1H-benzo[d]imidazole] |  | > 10000 | > 10000 | > 10000 | > 10000 |  |  |  |  | 
17 | FC(F)(F)c1cc2nc(-c3ccc(N4CCCC4)cc3)[nH]c2cc1Cl [Compound 32, 6-chloro-2-(4-(pyrrolidin-1-yl)phenyl)-5-(trifluoromethyl)-1H-benzo[d]imidazole] | Inactive | 1100 | 3870 | 600 | 5200 |  |  |  |  | 
18 | Oc1ccc(Cl)cc1-c1nc2cc(Cl)c(Cl)nc2[nH]1 [Compound 9, 4-Chloro-2-(5,6-dichloro-3H-imidazo[4,5-b]pyridin-2-yl)phenol] |  | > 10000 | > 10000 | 870 | 2240 | 8950 | 9760 | 510 | 2090 | 1850
19 | c1cc2nc(-c3ccc(N4CCCCC4)cc3)[nH]c2cn1 [Compound 30, 2-(4-(piperidin-1-yl)phenyl)-3H-imidazo[4,5-c]pyridine] | Inactive | 70 | 80 |  | 60 |  |  |  |  | 
20 | FC(F)(F)c1ccc2[nH]c(-c3ccc(N4CCCCC4)cc3)nc2c1 [Compound 29, 2-(4-(piperidin-1-yl)phenyl)-5-(trifluoromethyl)-1H-benzo[d]imidazole] | Inactive | 1420 | 7560 | 1080 | > 10000 |  |  |  |  | 
21 | FC(F)(F)c1cc(Cl)c2[nH]c(-c3ccc(N4CCCC4)cc3)nc2c1 [Compound 35, 7-chloro-2-(4-(pyrrolidin-1-yl)phenyl)-5-(trifluoromethyl)-1H-benzo[d]imidazole] | Inactive | 240 | 9060 | 150 | > 10000 |  |  |  |  | 
22 | CN1CCN(c2ccc(-c3nc4cc(Cl)c(Cl)cc4[nH]3)cc2)CC1 [Compound 10, 5,6-Dichloro-2-(4-(4-methylpipcrazin-1-yl)phenyl)-1H-benzo[d]imidazole] |  | 1340 | 5260 | 910 | 4760 | 130 | 3290 | 21000 | 11200 | 13
23 | Cc1nccn1-c1ccc(-c2nc3cc(Cl)c(Cl)cc3[nH]2)cc1 [Compound 16, 5,6-dichloro-2-(4-(2-methyl-1H-imidazol-1-yl)phenyl)-1H-benzo[d]imidazole] |  | > 10000 | > 10000 | > 10000 | > 10000 |  |  |  |  | 
24 | FC(F)(F)c1cc2nc(-c3ccc(N4CCCCC4)cc3)[nH]c2cc1Cl [Compound 37, 6-chloro-2-(4-(piperidin-1-yl)phenyl)-5-(trifluoromethyl)-1H-benzo[d]imidazole] | Inactive | 550 | 5330 |  | 9250 |  |  |  |  | 
25 | FC(F)(F)Oc1ccc(-c2nc3cc(C(F)(F)F)c(Cl)cc3[nH]2)cc1 [Compound 26, 6-chloro-2-(4-(trifluoromethoxy)phenyl)-5-(trifluoromethyl)-1H-benzo[d]imidazole] | Inactive | 860 | 6440 | 950 | 6920 |  |  |  |  | 
